# US10479780B2, “Aminopyrazole derivatives” (Chugai Seiyaku Kabushiki Kaisha, priority 2015, dated 2019)
# Key:
# Format in all cases: biochemical
# [1] = target: T1, human Yes1 enzyme (Homo sapiens, UniProt P07947); test: Yes1 enzyme inhibitory activity (time-resolved fluorometry, biotinylated peptide phosphorylation); conditions: biotinylated peptide phosphorylation, read-out: YES_IC50
# T1 construct: made in house
# In short: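 Inhibition was expressed against a compound-free control to give IC50, using TR-FRET read-out (Eu-cryptate anti-pTyr antibody, streptavidin-XL665).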
# [2] = target: T2, human Src enzyme (Homo sapiens, UniProt P12931); test: Src enzyme inhibitory activity (time-resolved fluorometry, biotinylated peptide phosphorylation); conditions: biotinylated peptide phosphorylation, read-out: SRC_IC50
# T2 construct: purchased Carna Biosciences, Inc. 08-173
# In short: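 Compounds were tested for blocking tyrosine phosphorylation of a biotinylated peptide substrate by recombinant human Src. Phosphorylated product was quantified by time-resolved fluorometry using europium cryptate and XL665 conjugates, and IC50 was calculated against the compound-free control.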
# [3] = target: T3, human Lck enzyme (Homo sapiens, UniProt P06239); test: Lck enzyme inhibitory activity (time-resolved fluorometry, biotinylated peptide phosphorylation); conditions: biotinylated peptide phosphorylation, read-out: LCK_IC50
# T3 construct: purchased Carna Biosciences, Inc. 08-170
# In short: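 Readout pairs a europium cryptate-labelled anti-phosphotyrosine antibody with XL665-streptavidin, measured by time-resolved fluorescence. IC50 derived from percent inhibition against untreated controls.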
# T3 sequence (P06239 whole entry): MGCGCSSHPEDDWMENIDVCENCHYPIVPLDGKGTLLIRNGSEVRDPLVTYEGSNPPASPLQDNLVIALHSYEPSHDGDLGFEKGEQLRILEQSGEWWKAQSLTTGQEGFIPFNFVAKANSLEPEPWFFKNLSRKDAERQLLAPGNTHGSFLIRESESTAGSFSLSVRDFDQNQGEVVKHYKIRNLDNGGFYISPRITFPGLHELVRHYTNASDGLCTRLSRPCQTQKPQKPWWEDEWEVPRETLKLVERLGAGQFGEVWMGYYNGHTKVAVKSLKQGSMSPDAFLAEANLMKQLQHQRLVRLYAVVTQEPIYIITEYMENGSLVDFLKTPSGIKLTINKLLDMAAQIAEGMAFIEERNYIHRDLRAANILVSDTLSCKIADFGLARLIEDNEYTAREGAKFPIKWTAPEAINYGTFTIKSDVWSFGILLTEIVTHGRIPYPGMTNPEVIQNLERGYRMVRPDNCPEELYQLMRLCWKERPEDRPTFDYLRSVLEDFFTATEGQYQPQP
# T2 sequence (P12931 whole entry): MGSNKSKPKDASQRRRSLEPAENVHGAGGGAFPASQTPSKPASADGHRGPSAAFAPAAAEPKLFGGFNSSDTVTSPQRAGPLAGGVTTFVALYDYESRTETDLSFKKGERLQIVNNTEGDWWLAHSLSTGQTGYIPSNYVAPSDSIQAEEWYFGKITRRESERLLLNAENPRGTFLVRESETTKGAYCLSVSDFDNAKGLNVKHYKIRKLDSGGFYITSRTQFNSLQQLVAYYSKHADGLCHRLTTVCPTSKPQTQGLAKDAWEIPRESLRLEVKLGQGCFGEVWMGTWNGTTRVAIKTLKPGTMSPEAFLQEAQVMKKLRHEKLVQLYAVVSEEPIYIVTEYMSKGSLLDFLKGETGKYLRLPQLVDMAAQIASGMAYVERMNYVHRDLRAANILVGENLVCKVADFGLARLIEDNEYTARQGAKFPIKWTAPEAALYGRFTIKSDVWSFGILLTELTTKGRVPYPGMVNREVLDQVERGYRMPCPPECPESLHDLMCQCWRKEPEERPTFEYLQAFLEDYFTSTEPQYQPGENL
# T1 sequence (P07947 whole entry): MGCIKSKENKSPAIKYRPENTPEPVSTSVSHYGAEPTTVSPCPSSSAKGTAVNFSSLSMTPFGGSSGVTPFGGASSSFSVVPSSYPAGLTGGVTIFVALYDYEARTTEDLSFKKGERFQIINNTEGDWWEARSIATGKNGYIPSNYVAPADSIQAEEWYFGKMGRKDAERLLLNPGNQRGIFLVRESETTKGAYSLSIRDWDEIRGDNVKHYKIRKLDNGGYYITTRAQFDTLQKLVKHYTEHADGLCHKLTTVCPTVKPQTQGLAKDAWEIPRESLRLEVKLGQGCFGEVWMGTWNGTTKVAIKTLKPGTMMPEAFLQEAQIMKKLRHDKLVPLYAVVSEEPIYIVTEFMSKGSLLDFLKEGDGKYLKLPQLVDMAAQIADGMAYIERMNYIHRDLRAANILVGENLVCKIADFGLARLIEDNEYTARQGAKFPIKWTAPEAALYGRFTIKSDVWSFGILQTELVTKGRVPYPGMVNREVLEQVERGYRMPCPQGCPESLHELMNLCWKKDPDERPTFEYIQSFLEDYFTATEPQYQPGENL
IC50 [1],IC50 [2],IC50 [3],Structure (SMILES)
5.4 nM,150 nM,28 nM,"Cc1cc2cc(C(=O)c3cnn(-c4cnc(Oc5c(F)cccc5F)cc4C)c3N)[nH]c2cc1N1C(=O)N[C@@H](Cc2ccccc2)C1=O [Example 5-1-452, (5S)-3-[2-[5-amino-1-[6-(2,6-difluorophenoxy)-4-methylpyridin-3-yl]pyrazole-4-carbonyl]-5-methyl-1H-indol-6-yl]-5-benzylimidazolidine-2,4-dione]"
3.2 nM,130 nM,12 nM,"Cc1cc2cc(C(=O)c3cnn(-c4cnc(Oc5c(F)cccc5F)cc4C)c3N)[nH]c2cc1N1C(=O)N[C@@H](C(C)C)C1=O [Example 5-1-453, (5S)-3-[2-[5-amino-1-[6-(2,6-difluorophenoxy)-4-methylpyridin-3-yl]pyrazole-4-carbonyl]-5-methyl-1H-indol-6-yl]-5-propan-2-ylimidazolidine-2,4-dione]"
1.7 nM,40 nM,5.1 nM,"Cc1cc2cc(C(=O)c3cnn(-c4cnc(Oc5c(F)cccc5F)cc4C)c3N)[nH]c2cc1N1C(=O)[C@@H]2CCCN2C1=O [Example 5-1-454, (7aS)-2-[2-[5-amino-1-[6-(2,6-difluorophenoxy)-4-methylpyridin-3-yl]pyrazole-4-carbonyl]-5-methyl-1H-indol-6-yl]-5,6,7,7a-tetrahydropyrrolo[1,2-c]imidazole-1,3-dione]"
0.86 nM,23 nM,2.6 nM,"Cc1cc2cc(C(=O)c3cnn(-c4cnc(Oc5c(F)cccc5F)cc4C)c3N)[nH]c2cc1N1C(=O)[C@@H]2C[C@@H](O)CN2C1=O [Example 5-1-455, (6R,7aS)-2-[2-[5-amino-1-[6-(2,6-difluorophenoxy)-4-methylpyridin-3-yl]pyrazole-4-carbonyl]-5-methyl-1H-indol-6-yl]-6-hydroxy-5,6,7,7a-tetrahydropyrrolo[1,2-c]imidazole-1,3-dione]"
0.4 nM,8.8 nM,2.2 nM,"Cc1cc2cc(C(=O)c3cnn(-c4ccc(Oc5ccccc5F)cc4C)c3N)[nH]c2cc1N1C(=O)N[C@@H](CO)C1=O [Example 5-1-456, (5S)-3-[2-[5-amino-1-[4-(2-fluorophenoxy)-2-methylphenyl]pyrazole-4-carbonyl]-5-methyl-1H-indol-6-yl]-5-(hydroxymethyl)imidazolidine-2,4-dione]"
2.3 nM,78 nM,19 nM,"Cc1cc2cc(C(=O)c3cnn(-c4ccc(Oc5ccccc5F)cc4C)c3N)[nH]c2cc1N1C(=O)N[C@@H](Cc2ccccc2)C1=O [Example 5-1-457, (5S)-3-[2-[5-amino-1-[4-(2-fluorophenoxy)-2-methylphenyl]pyrazole-4-carbonyl]-5-methyl-1H-indol-6-yl]-5-benzylimidazolidine-2,4-dione]"
0.73 nM,16 nM,4 nM,"Cc1cc2cc(C(=O)c3cnn(-c4ccc(Oc5ccccc5F)cc4C)c3N)[nH]c2cc1N1C(=O)[C@@H]2CCCN2C1=O [Example 5-1-458, (7aS)-2-[2-[5-amino-1-[4-(2-fluorophenoxy)-2-methylphenyl]pyrazole-4-carbonyl]-5-methyl-1H-indol-6-yl]-5,6,7,7a-tetrahydropyrrolo[1,2-c]imidazole-1,3-dione]"
0.44 nM,7.7 nM,2.7 nM,"Cc1cc2cc(C(=O)c3cnn(-c4ccc(Oc5ccccc5F)cc4C)c3N)[nH]c2cc1N1C(=O)[C@@H]2C[C@@H](O)CN2C1=O [Example 5-1-459, (6R,7aS)-2-[2-[5-amino-1-[4-(2-fluorophenoxy)-2-methylphenyl]pyrazole-4-carbonyl]-5-methyl-1H-indol-6-yl]-6-hydroxy-5,6,7,7a-tetrahydropyrrolo[1,2-c]imidazole-1,3-dione]"
4.5 nM,770 nM,200 nM,"Cc1cc2cc(C(=O)c3cnn(-c4cnc(Oc5ccccc5F)cc4C)c3N)[nH]c2cc1NS(=O)(=O)c1cc(F)cc(F)c1 [Example 5-1-460, N-[2-[5-amino-1-[6-(2-fluorophenoxy)-4-methylpyridin-3-yl]pyrazole-4-carbonyl]-5-methyl-1H-indol-6-yl]-3,5-difluorobenzenesulfonamide]"
17 nM,3500 nM,590 nM,Cc1cc(C)c(S(=O)(=O)Nc2cc3[nH]c(C(=O)c4cnn(-c5cnc(Oc6ccccc6F)cc5C)c4N)cc3cc2C)c(C)c1 [Example 5-1-461]
6.1 nM,1000 nM,260 nM,"Cc1cccc(S(=O)(=O)Nc2cc3[nH]c(C(=O)c4cnn(-c5cnc(Oc6ccccc6F)cc5C)c4N)cc3cc2C)c1 [Example 5-1-462, N-[2-[5-amino-1-[6-(2-fluorophenoxy)-4-methylpyridin-3-yl]pyrazole-4-carbonyl]-5-methyl-1H-indol-6-yl]-3-methylbenzenesulfonamide]"
12 nM,1900 nM,420 nM,"Cc1cc2cc(C(=O)c3cnn(-c4cnc(Oc5ccccc5F)cc4C)c3N)[nH]c2cc1NS(=O)(=O)c1cccc(C(F)(F)F)c1 [Example 5-1-463, N-[2-[5-amino-1-[6-(2-fluorophenoxy)-4-methylpyridin-3-yl]pyrazole-4-carbonyl]-5-methyl-1H-indol-6-yl]-3-(trifluoromethyl) benzenesulfonamide]"
9.3 nM,1200 nM,310 nM,"Cc1cc2cc(C(=O)c3cnn(-c4cnc(Oc5ccccc5F)cc4C)c3N)[nH]c2cc1NS(=O)(=O)c1cccc(Cl)c1 [Example 5-1-464, N-[2-[5-amino-1-[6-(2-fluorophenoxy)-4-methylpyridin-3-yl]pyrazole-4-carbonyl]-5-methyl-1H-indol-6-yl]-3-chlorobenzenesulfonamide]"
25 nM,4000 nM,510 nM,"Cc1cc2cc(C(=O)c3cnn(-c4cnc(Oc5ccccc5F)cc4C)c3N)[nH]c2cc1NS(=O)(=O)c1cccc2ccccc12 [Example 5-1-465, N-[2-[5-amino-1-[6-(2-fluorophenoxy)-4-methylpyridin-3-yl]pyrazole-4-carbonyl]-5-methyl-1H-indol-6-yl]naphthalene-1-sulfonamide]"
28 nM,4400 nM,520 nM,"Cc1cc2cc(C(=O)c3cnn(-c4cnc(Oc5ccccc5F)cc4C)c3N)[nH]c2cc1NS(=O)(=O)c1ccc2ccccc2c1 [Example 5-1-466, N-[2-[5-amino-1-[6-(2-fluorophenoxy)-4-methylpyridin-3-yl]pyrazole-4-carbonyl]-5-methyl-1H-indol-6-yl]naphthalene-2-sulfonamide]"
24 nM,3800 nM,370 nM,"Cc1cc2cc(C(=O)c3cnn(-c4cnc(Oc5ccccc5F)cc4C)c3N)[nH]c2cc1NS(=O)(=O)c1csc2ccccc12 [Example 5-1-467, N-[2-[5-amino-1-[6-(2-fluorophenoxy)-4-methylpyridin-3-yl]pyrazole-4-carbonyl]-5-methyl-1H-indol-6-yl]-1-benzothiophene-3-sulfonamide]"
11 nM,7800 nM,430 nM,"Cc1cc(-n2ncc(C(=O)c3cc4cc(C)c(N5C(=O)NC6(CCC6)C5=O)cc4[nH]3)c2N)ccc1Oc1ccccc1F [Example 5-1-468, 7-[2-[5-amino-1-[4-(2-fluorophenoxy)-3-methylphenyl]pyrazole-4-carbonyl]-5-methyl-1H-indol-6-yl]-5,7-diazaspiro[3.4]octane-6,8-dione]"
9 nM,2700 nM,100 nM,"Cc1cc(-n2ncc(C(=O)c3cc4cc(C)c(N5C(=O)NC6(CCOCC6)C5=O)cc4[nH]3)c2N)ccc1Oc1ccccc1F [Example 5-1-469, 3-[2-[5-amino-1-[4-(2-fluorophenoxy)-3-methylphenyl]pyrazole-4-carbonyl]-5-methyl-1H-indol-6-yl]-8-oxa-1,3-diazaspiro[4.5] decane-2,4-dione]"
17 nM,3500 nM,240 nM,"Cc1cc(-n2ncc(C(=O)c3cc4cc(C)c(N5C(=O)NC6(CC6)C5=O)cc4[nH]3)c2N)ccc1Oc1ccccc1F [Example 5-1-473, 6-[2-[5-amino-1-[4-(2-fluorophenoxy)-3-methylphenyl]pyrazole-4-carbonyl]-5-methyl-1H-indol-6-yl]-4,6-diazaspiro[2.4]heptane-5,7-dione]"
8.2 nM,1400 nM,71 nM,"Cc1cc(-n2ncc(C(=O)c3cc4cc(C)c(N5C(=O)NC6(COC6)C5=O)cc4[nH]3)c2N)ccc1Oc1ccccc1F [Example 5-1-475, 7-[2-[5-amino-1-[4-(2-fluorophenoxy)-3-methylphenyl]pyrazole-4-carbonyl]-5-methyl-1H-indol-6-yl]-2-oxa-5,7-diazaspiro[3.4] octane-6,8-dione]"
2.9 nM,97 nM,12 nM,"Cc1cc2cc(C(=O)c3cnn(-c4ccc(Oc5ccccc5F)cc4C)c3N)[nH]c2cc1N1C(=O)N[C@@H](C(C)C)C1=O [Example 5-1-476, (5S)-3-[2-[5-amino-1-[4-(2-fluorophenoxy)-2-methylphenyl]pyrazole-4-carbonyl]-5-methyl-1H-indol-6-yl]-5-propan-2-ylimidazolidine-2,4-dione]"
5.2 nM,250 nM,48 nM,"Cc1cc2cc(C(=O)c3cnn(-c4cnc(Oc5ccccc5F)cc4C)c3N)[nH]c2cc1NS(=O)(=O)c1ccccn1 [Example 5-1-477, N-[2-[5-amino-1-[6-(2-fluorophenoxy)-4-methylpyridin-3-yl]pyrazole-4-carbonyl]-5-methyl-1H-indol-6-yl]pyridine-2-sulfonamide]"
